Results taken from patent publication US20090117613A1, “Method for redox reaction using an old yellow enzyme” (priority 2007, published 2009).

Tests used:
Format in all cases: binding
[1] = target: T1, Geobacillus kaustophilus Old Yellow Enzyme (GkOYE, YP—148185.1) mutant Y28F (Geobacillus kaustophilus, UniProt Q5KXG9, Y28F); assay: Titration of GkOYE mutant Y28F with pHBA
T1 construct: made in house; host or cells: E. coli DH5alpha
Text: (§1) Mutants of GkOYE (Y28F, H164A, H167A; H164A/H167A; 2 clones each) were transformed into and expressed in E. coli DH5alpha.

[2] = target: T2, Geobacillus kaustophilus Old Yellow Enzyme (GkOYE, YP—148185.1) mutant H164A/H167A (Geobacillus kaustophilus, UniProt Q5KXG9, H164A/H167A); assay: Titration of GkOYE double mutant H164A/H167A with pHBA
T2 construct: made in house; host or cells: E. coli DH5alpha
Text: as §1

[3] = target: T3, Geobacillus kaustophilus Old Yellow Enzyme (GkOYE, YP—148185.1) mutant H167A (Geobacillus kaustophilus, UniProt Q5KXG9, H167A); assay: Titration of GkOYE mutant H167A with pHBA
T3 construct: made in house; host or cells: E. coli DH5alpha
Text: as §1

[4] = target: T4, Geobacillus kaustophilus Old Yellow Enzyme (GkOYE, YP—148185.1) mutant H164A (Geobacillus kaustophilus, UniProt Q5KXG9, H164A); assay: Titration of GkOYE mutant H164A with pHBA
T4 construct: made in house; host or cells: E. coli DH5alpha
Text: as §1

[5] = target: T5, Geobacillus kaustophilus Old Yellow Enzyme (GkOYE, YP—148185.1), wild type (Geobacillus kaustophilus, UniProt Q5KXG9); assay: Titration of wild type GkOYE with pHBA
T5 construct: made in house; host or cells: E. coli DH5α
T5 sequence (Q5KXG9 1-340): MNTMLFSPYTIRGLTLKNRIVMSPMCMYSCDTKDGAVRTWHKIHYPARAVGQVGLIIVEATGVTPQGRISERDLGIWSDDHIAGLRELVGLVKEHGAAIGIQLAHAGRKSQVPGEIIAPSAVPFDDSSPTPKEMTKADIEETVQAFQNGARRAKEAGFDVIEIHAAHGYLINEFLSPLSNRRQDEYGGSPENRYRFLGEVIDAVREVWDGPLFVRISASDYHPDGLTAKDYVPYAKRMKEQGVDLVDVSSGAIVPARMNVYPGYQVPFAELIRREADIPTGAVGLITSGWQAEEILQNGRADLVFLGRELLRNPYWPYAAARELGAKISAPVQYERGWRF
Text: as §1

T4 sequence (Q5KXG9 whole entry H164A): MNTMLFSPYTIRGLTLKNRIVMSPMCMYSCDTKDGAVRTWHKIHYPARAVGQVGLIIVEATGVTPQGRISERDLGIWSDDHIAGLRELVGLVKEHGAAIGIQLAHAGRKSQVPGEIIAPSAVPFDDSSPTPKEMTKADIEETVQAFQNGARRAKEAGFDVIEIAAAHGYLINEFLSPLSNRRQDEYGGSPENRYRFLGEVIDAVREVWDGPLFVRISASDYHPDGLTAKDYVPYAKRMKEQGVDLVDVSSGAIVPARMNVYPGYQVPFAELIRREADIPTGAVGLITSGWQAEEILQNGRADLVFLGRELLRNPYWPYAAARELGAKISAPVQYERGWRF
T3 sequence (Q5KXG9 whole entry H167A): as the sequence (Q5KXG9 whole entry H164A) above, with A164H, H167A counted along it
T1 sequence (Q5KXG9 whole entry Y28F): as the sequence (Q5KXG9 whole entry H164A) above, with Y28F, A164H counted along it
T2 sequence (Q5KXG9 whole entry H164A/H167A): as the sequence (Q5KXG9 whole entry H164A) above, with H167A counted along it

With O=Cc1ccc(O)cc1 [pHBA] the Kd [1] was 1000 to 10000 µM, the Kd [2] was 1000 to 10000 µM and the Kd [3] was 1000 to 10000 µM. The Kd [4] was 1000 to 10000 µM and the Kd [5] was 3.1 µM.
